# Source: paper PMC3904457 (ACS medicinal chemistry letters, 2013)
# Target: T1, COX-1 (Ovis aries, UniProt P05979)
# T1 sequence (P05979 25-600): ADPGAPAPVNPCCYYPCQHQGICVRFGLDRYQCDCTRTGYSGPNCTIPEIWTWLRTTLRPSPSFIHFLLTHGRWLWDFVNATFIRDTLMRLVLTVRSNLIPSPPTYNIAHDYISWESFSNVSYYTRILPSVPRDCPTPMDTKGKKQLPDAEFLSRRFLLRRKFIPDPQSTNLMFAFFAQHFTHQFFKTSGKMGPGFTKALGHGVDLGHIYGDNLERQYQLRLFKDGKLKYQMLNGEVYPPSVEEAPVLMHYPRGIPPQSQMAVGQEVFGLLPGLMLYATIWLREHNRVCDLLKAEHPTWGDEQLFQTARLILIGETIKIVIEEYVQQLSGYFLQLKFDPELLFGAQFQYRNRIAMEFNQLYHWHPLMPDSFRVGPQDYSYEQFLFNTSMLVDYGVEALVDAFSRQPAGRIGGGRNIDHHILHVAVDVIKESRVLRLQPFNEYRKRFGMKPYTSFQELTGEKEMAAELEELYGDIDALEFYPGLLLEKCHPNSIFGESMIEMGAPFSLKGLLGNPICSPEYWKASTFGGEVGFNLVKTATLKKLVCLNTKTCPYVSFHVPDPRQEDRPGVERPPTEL
# Experiment: inhibition of COX-1-catalyzed oxidation of arachidonic acid
# Format: biochemical
# Settings: at concentrations up to 1 mM
compound,measurement,value
Cc1nc2c(c(C)c1O)CNC(=O)N2 [compound 13],COX-1 inhibition (in words),not able to significantly inhibit COX-1
